# Results from patent US20260201008A1, “SECRETIN-DERIVED GLP1R SELECTIVE AGONISTS” (GUBRA A/S, priority 2023, published 2026).
# Read-outs that look alike come from different tables or passages of the source. Numbered stars: 1 amine (or outer) side, 2 acyl side, 3 side chain; on linkers, the order of the positions; unused ones are H or OH. Square brackets hold non-standard residues; d marks the D form. Side chains are listed from the residue outwards. Peptide text beside a SMILES is read from it. * marks the point of attachment. C20 diacid = O=C(O)CCCCCCCCCCCCCCCCCCC(=O)*; γGlu = O=C(O)[C@H](CCC(=O)[*:2])N[*:1]; AEEA = NCCOCCOCC(=O)O; Aib = CC(C)(N)C(=O)O
# How the values were obtained:
# SCTR = SCTR (Homo sapiens, UniProt P47872); experiment: hSCTR potency, cAMP accumulation in CHO-K1 cells stably overexpressing hSCTR; assay type: cell-based; set-up: alternatively Euroscreen ES-712-AF; FAST-0161L; host or cells: CHO-K1
# How it was run: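 Division-arrested CHO-K1 cells stably expressing hSCTR were plated in DPBS with 0.05% casein and 0.5 mM IBMX, then stimulated with test peptide for 30 min at room temperature. cAMP was read by HTRF after one hour. EC50 came from variable-slope sigmoidal nonlinear regression.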
# GLP1R = GLP1R (Homo sapiens, UniProt P43220); experiment: hGLP1R potency, cAMP accumulation in CHO-K1 cells stably overexpressing hGLP1R; assay type: cell-based; set-up: host or cells: CHO-K1; settings: for Selectivity: SCTR EC50/GLP1R EC50 ratio
# How it was run: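 Cells were plated in DPBS with 0.05% casein and 0.5 mM IBMX, then stimulated for 30 min at room temperature with test compound. cAMP was read by TR-FRET after one hour. EC50 came from variable-slope sigmoid nonlinear regression; purified peptides ran as 11-point 3-fold series, n=2.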
# [1] = Thioflavin T fibril formation assay of purified peptides; assay type: physicochemical; settings: 267 μM, phosphate buffer pH 7.0, 96 h at 40° C.
# Description: Thioflavin T fibril formation assay: Peptides are dissolved as 267 μM in 50 mM phosphate buffer pH 7.0 for 2 h at room temperature on a rocking table. The samples were then divided into three replicates of 80 μl/well and mixed with 2 μl/well Thioflavin T (ThT) to a final concentration of 4 μM ThT in a black 384 well microplate with a clear bottom (Greiner #781096). The plate is inserted in a CLARIOstar Plus microplate reader (BMG Labtech) and fibril formation is measured as an increase in fluorescence emission at 480 nm (excitation at 450 nm) during 96 h at 40° C. with cycles of 5 min rest and 5 min linear shaking at 700 rpm.
# [2] = Solubility of purified peptides; assay type: physicochemical; settings: 100 mM phosphate buffer, target pH 7.0, target approximately 10 mg/mL
# Description: Solubility was tested in the following vehicles: 100 mM phosphate buffer facilitating a target pH of 7.0. Samples were directly dissolved in Mini-UniPrep Syringeless Filter 0.45 μm unit (Whatman). For the desired concentration, such as a concentration of approximately 10 mg/mL, 1050 nmol of peptide was dissolved in 400 μL vehicle. Samples were incubated for at least 1 h at room temperature on a rocking table. The pH was measured and adjusted. Samples were left on the rocking table for an additional hour before a second pH measurement and adjustment. Visual inspection was performed and noted before the filter was pushed. The concentration of peptide in the filtrate was determined using CAD (Charged Aerosol Detection), double determination was done for each sample. The measured concentration was reported in μM. Furthermore, the pH of the filtrate was measured and reported. Peptides with a measured concentration within +/−20% of target concentration are considered fully soluble.
# [3] = Table 2, extended 30 amino acid peptides, read-out: pEC50 hSCTR (converted)
# [4] = Table 2, extended 30 amino acid peptides
# [5] = Table 2, extended 30 amino acid peptides, read-out: PEC50 hGLPR1 (converted)
# Chain of GLP1R (P43220 24-463): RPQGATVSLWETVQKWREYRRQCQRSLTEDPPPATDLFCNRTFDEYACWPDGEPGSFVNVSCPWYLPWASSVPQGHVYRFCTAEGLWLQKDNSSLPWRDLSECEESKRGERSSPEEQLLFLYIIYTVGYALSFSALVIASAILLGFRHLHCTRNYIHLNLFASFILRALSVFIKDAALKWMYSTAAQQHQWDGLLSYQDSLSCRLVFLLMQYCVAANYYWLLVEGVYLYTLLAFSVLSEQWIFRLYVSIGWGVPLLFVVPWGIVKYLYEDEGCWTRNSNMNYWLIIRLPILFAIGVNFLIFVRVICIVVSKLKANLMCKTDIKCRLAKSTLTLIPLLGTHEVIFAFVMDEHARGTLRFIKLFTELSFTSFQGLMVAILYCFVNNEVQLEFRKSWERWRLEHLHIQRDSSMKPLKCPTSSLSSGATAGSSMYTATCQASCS
# Chain of SCTR (P47872 23-440): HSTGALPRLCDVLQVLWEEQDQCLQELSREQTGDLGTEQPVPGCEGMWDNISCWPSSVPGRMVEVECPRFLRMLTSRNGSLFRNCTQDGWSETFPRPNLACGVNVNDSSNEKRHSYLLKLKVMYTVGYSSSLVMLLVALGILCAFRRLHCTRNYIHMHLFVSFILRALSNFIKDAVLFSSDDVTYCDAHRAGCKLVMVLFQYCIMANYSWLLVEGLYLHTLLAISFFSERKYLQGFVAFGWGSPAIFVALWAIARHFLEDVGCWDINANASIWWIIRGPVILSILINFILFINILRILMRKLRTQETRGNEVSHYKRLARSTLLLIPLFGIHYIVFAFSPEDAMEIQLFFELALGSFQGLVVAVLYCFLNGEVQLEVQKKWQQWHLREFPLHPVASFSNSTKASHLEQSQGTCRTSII
EC50 (SCTR; [3]) [nM],Selectivity (GLP1R; [4]),Selectivity (GLP1R; purified peptides),EC50 (GLP1R; [5]) [nM],Fibril formation [1],solubility [2] [µg/mL],SMILES,"EC50 (SCTR; cAMP accumulation, CHO-K1 cells stably overexpressing hSCTR, read-out: hSCTR potency (pEC50) (converted)) [nM]","EC50 (SCTR; purified peptides, read-out: hSCTR pEC50 (converted)) [nM]","EC50 (GLP1R; cAMP accumulation, CHO-K1 cells stably overexpressing hGLP1R, read-out: hGLP1R potency (pEC50) (converted)) [nM]","SCTR EC50/GLP1R EC50 ratio (GLP1R; selectivity ratio, hSCTR vs hGLP1R, cAMP accumulation in CHO-K1 cells)"
398,34167,33673,0.0126,No,11000,CC(C)C[C@H](NC(=O)[C@H](Cc1ccccc1)NC(=O)[C@H](CCCNC(=N)N)NC(=O)[C@H](CCC(N)=O)NC(=O)[C@H](CC(C)C)NC(=O)C(C)(C)NC(=O)[C@H](C)NC(=O)[C@H](CCC(=O)O)NC(=O)[C@H](CCC(=O)O)NC(=O)[C@H](CCCCNC(=O)COCCOCCNC(=O)COCCOCCNC(=O)CC[C@H](NC(=O)CCCCCCCCCCCCCCCCCCC(=O)O)C(=O)O)NC(=O)[C@H](CC(C)C)NC(=O)[C@H](Cc1ccc(O)cc1)NC(=O)[C@H](CO)NC(=O)[C@@H](NC(=O)[C@H](CC(=O)O)NC(=O)[C@H](CO)NC(=O)[C@@H](NC(=O)[C@H](Cc1ccccc1)NC(=O)[C@@H](NC(=O)CNC(=O)[C@H](CCC(=O)O)NC(=O)C(C)(C)NC(=O)[C@@H](N)Cc1c[nH]cn1)[C@@H](C)O)[C@@H](C)O)C(C)C)C(=O)N[C@@H](CCC(=O)O)C(=O)N[C@@H](Cc1c[nH]cn1)C(=O)N[C@@H](CC(C)C)C(=O)N[C@H](C(=O)N[C@@H](CCC(=O)O)C(=O)N[C@@H](C)C(=O)N[C@@H](C)C(N)=O)C(C)C [compound 209] (H-H[Aib]EGTFTSDVSYLK([AEEA-AEEA-γGlu-C20 diacid])EEA[Aib]LQRFLEHLVEAA-NH2),–,–,–,–
1000,54706,63571,0.0158,No,8200,CC(C)C[C@H](NC(=O)[C@H](CC(C)C)NC(=O)[C@H](Cc1ccc(O)cc1)NC(=O)[C@H](CO)NC(=O)[C@@H](NC(=O)[C@H](CC(=O)O)NC(=O)[C@H](CO)NC(=O)[C@@H](NC(=O)[C@H](Cc1ccccc1)NC(=O)[C@@H](NC(=O)CNC(=O)[C@H](CCC(=O)O)NC(=O)C(C)(C)NC(=O)[C@@H](N)Cc1c[nH]cn1)[C@@H](C)O)[C@@H](C)O)C(C)C)C(=O)N[C@@H](CCC(=O)O)C(=O)N[C@@H](CCC(=O)O)C(=O)N[C@@H](C)C(=O)NC(C)(C)C(=O)N[C@@H](CC(C)C)C(=O)N[C@@H](CCC(N)=O)C(=O)N[C@@H](CCCNC(=N)N)C(=O)N[C@@H](Cc1ccccc1)C(=O)N[C@@H](CC(C)C)C(=O)N[C@@H](CCC(=O)O)C(=O)N[C@@H](CCCCNC(=O)COCCOCCNC(=O)COCCOCCNC(=O)CC[C@H](NC(=O)CCCCCCCCCCCCCCCCCCC(=O)O)C(=O)O)C(=O)N[C@@H](CC(C)C)C(=O)N[C@H](C(=O)N[C@@H](CCC(=O)O)C(=O)N[C@@H](C)C(=O)N[C@@H](C)C(N)=O)C(C)C [compound 213] (H-H[Aib]EGTFTSDVSYLLEEA[Aib]LQRFLEK([AEEA-AEEA-γGlu-C20 diacid])LVEAA-NH2),–,–,–,–
63.1,2864,2857,0.02,No,8400,CC(C)C[C@H](NC(=O)[C@H](CC(C)C)NC(=O)[C@H](CCCNC(=N)N)NC(=O)[C@H](CO)NC(=O)[C@@H](NC(=O)[C@H](CC(=O)O)NC(=O)[C@H](CO)NC(=O)[C@@H](NC(=O)[C@H](Cc1ccccc1)NC(=O)[C@@H](NC(=O)CNC(=O)[C@H](CCC(=O)O)NC(=O)C(C)(C)NC(=O)[C@@H](N)Cc1c[nH]cn1)[C@@H](C)O)[C@@H](C)O)C(C)C)C(=O)N[C@@H](CCC(=O)O)C(=O)N[C@@H](CCC(=O)O)C(=O)N[C@@H](C)C(=O)NC(C)(C)C(=O)N[C@@H](CC(C)C)C(=O)N[C@@H](CCC(N)=O)C(=O)N[C@@H](CCCNC(=N)N)C(=O)N[C@@H](Cc1ccccc1)C(=O)N[C@@H](CC(C)C)C(=O)N[C@@H](CCC(=O)O)C(=O)N[C@@H](CCCCNC(=O)COCCOCCNC(=O)COCCOCCNC(=O)CC[C@H](NC(=O)CCCCCCCCCCCCCCCCCCC(=O)O)C(=O)O)C(=O)N[C@@H](CC(C)C)C(=O)N[C@H](C(=O)N[C@@H](CCC(=O)O)C(=O)N[C@@H](C)C(=O)N[C@@H](C)C(N)=O)C(C)C [compound 212] (H-H[Aib]EGTFTSDVSRLLEEA[Aib]LQRFLEK([AEEA-AEEA-γGlu-C20 diacid])LVEAA-NH2),–,–,–,–
–,–,–,–,No,8300,CC(C)C[C@H](NC(=O)[C@H](Cc1ccccc1)NC(=O)[C@H](CCCNC(=N)N)NC(=O)[C@H](CCC(N)=O)NC(=O)[C@H](CC(C)C)NC(=O)C(C)(C)NC(=O)[C@H](C)NC(=O)[C@H](CCC(=O)O)NC(=O)[C@H](CCC(=O)O)NC(=O)[C@H](CCCCNC(=O)COCCOCCNC(=O)COCCOCCNC(=O)CC[C@H](NC(=O)CCCCCCCCCCCCCCCCCCC(=O)O)C(=O)O)NC(=O)[C@H](CC(C)C)NC(=O)[C@H](CCC(=O)O)NC(=O)[C@H](CO)NC(=O)[C@@H](NC(=O)[C@H](CC(=O)O)NC(=O)[C@H](CO)NC(=O)[C@@H](NC(=O)[C@H](Cc1ccccc1)NC(=O)[C@@H](NC(=O)CNC(=O)[C@H](CCC(=O)O)NC(=O)C(C)(C)NC(=O)[C@@H](N)Cc1c[nH]cn1)[C@@H](C)O)[C@@H](C)O)C(C)C)C(=O)N[C@@H](CCC(=O)O)C(=O)N[C@@H](Cc1c[nH]cn1)C(=O)N[C@@H](CC(C)C)C(=O)N[C@H](C(=O)N[C@@H](CCC(=O)O)C(=O)N[C@@H](C)C(=O)N[C@@H](C)C(N)=O)C(C)C [compound 210] (H-H[Aib]EGTFTSDVSELK([AEEA-AEEA-γGlu-C20 diacid])EEA[Aib]LQRFLEHLVEAA-NH2),–,–,–,–

SMILES,EC50 (SCTR; [3]) [nM],Selectivity (GLP1R; [4]),Selectivity (GLP1R; purified peptides),EC50 (GLP1R; [5]) [nM],Fibril formation [1],solubility [2] [µg/mL],"EC50 (SCTR; cAMP accumulation, CHO-K1 cells stably overexpressing hSCTR, read-out: hSCTR potency (pEC50) (converted)) [nM]","EC50 (SCTR; purified peptides, read-out: hSCTR pEC50 (converted)) [nM]","EC50 (GLP1R; cAMP accumulation, CHO-K1 cells stably overexpressing hGLP1R, read-out: hGLP1R potency (pEC50) (converted)) [nM]","SCTR EC50/GLP1R EC50 ratio (GLP1R; selectivity ratio, hSCTR vs hGLP1R, cAMP accumulation in CHO-K1 cells)"
CC(C)C[C@H](NC(=O)[C@H](Cc1ccccc1)NC(=O)[C@H](CCCNC(=N)N)NC(=O)[C@H](CCC(N)=O)NC(=O)[C@H](CC(C)C)NC(=O)C(C)(C)NC(=O)[C@H](C)NC(=O)[C@H](CCC(=O)O)NC(=O)[C@H](CCC(=O)O)NC(=O)[C@H](CCCCNC(=O)COCCOCCNC(=O)COCCOCCNC(=O)CC[C@H](NC(=O)CCCCCCCCCCCCCCCCCCC(=O)O)C(=O)O)NC(=O)[C@H](CC(C)C)NC(=O)[C@H](Cc1ccc(O)cc1)NC(=O)[C@H](CO)NC(=O)[C@@H](NC(=O)[C@H](CC(=O)O)NC(=O)[C@H](CO)NC(=O)[C@@H](NC(=O)[C@H](Cc1ccccc1)NC(=O)[C@@H](NC(=O)CNC(=O)[C@H](CCC(=O)O)NC(=O)C(C)(C)NC(=O)[C@@H](N)Cc1c[nH]cn1)[C@@H](C)O)[C@@H](C)O)C(C)C)C(=O)N[C@@H](CCC(=O)O)C(=O)N[C@@H](Cc1c[nH]cn1)C(=O)N[C@@H](CC(C)C)C(=O)N[C@H](C(N)=O)C(C)C [compound 203] (H-H[Aib]EGTFTSDVSYLK([AEEA-AEEA-γGlu-C20 diacid])EEA[Aib]LQRFLEHLV-NH2),–,–,11176,–,No,9800,200,200,0.02,10000
